{"source": "patent US20060111366A1", "about": "“Pharmaceutical use of substituted amides” (Novo Nordisk A/S, priority 2003, published 2006)", "target": "T1, h-11βHSD1 (Homo sapiens, UniProt P28845)", "T1 construct": "made in house", "T1 sequence (P28845 whole entry)": "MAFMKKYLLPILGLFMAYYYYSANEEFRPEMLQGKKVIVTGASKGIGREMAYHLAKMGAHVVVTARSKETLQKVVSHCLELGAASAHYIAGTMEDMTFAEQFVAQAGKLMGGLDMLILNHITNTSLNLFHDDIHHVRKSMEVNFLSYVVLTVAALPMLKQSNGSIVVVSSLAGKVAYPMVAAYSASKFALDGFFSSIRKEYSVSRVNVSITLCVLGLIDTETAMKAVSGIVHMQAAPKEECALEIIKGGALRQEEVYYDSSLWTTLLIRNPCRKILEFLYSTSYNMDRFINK", "assay": "11βHSD1 enzyme assay (scintillation proximity assay, conversion of 3H-cortisone to 3H-cortisol)", "format": "biochemical", "conditions": "extract of yeast transformed with h-11βHSD1; 120 nM 3H-cortisone, 4 mM β-NADPH, 60 min at 30° C.", "description": "^3H-cortisone and anti-rabbit Ig coated scintillation proximity assay (SPA) beads were purchased from Amersham Pharmacia Biotech, β-NADPH was from Sigma and rabbit anticortisol antibodies were from Fitzgerald. An extract of yeast transformed with h-11βHSD1 (Hult et al., FEBS Lett., 441, 25 (1998)) was used as the source of enzyme. The test compounds were dissolved in DMSO (10 mM). All dilutions were performed in a buffer containing 50 mM TRIS-HCl (Sigma Chemical Co), 4 mM EDTA (Sigma Chemical Co), 0.1% BSA (Sigma Chemical Co), 0.01% Tween-20 (Sigma Chemical Co) and 0.005% bacitracin (Novo Nordisk A/S), pH=7.4. Optiplate 96 wells plates were supplied by Packard. The amount of ^3H-cortisol bound to the SPA beads was measured on TopCount NXT, Packard.\nh-11βHSD1, 120 nM ^3H-cortisone, 4 mM β-NADPH, antibody (1:200), serial dilutions of test compound and SPA particles (2 mg/well) were added to the wells. The reaction was initiated by mixing the different components and was allowed to proceed under shaking for 60 min at 30° C. […] Data was analysed using GraphPad Prism software.", "note": "pIC50: −log10 of the molar value."}
{"smiles": "CN(C(=O)CCCOc1ccc2c(c1)OCO2)C1CCCCC1", "note": "[(I) 1, 4-(Benzo[1,3]dioxol-5-yloxy)-N-cyclohexyl-N-methyl-butyramide]", "values": [{"measurement": "pIC50", "result": 6.25}]}
{"smiles": "CN1CCC(N(C)C(=O)CCCOc2ccccc2)CC1", "note": "[(I) 2, N-Methyl-N-(1-methyl-piperidin-4-yl)-4-Phenoxy-butyramide]", "values": [{"measurement": "pIC50", "result": 3.92}]}
{"smiles": "CCCc1c(C(=O)N(C)C2CCCCC2)cnn1-c1ccc(Cl)cc1", "note": "[(III) 1, 1-(4-Chloro-phenyl)-5-propyl-1H-pyrazole-4-carboxylic acid cyclohexyl-methyl-amide]", "values": [{"measurement": "pIC50", "result": 7.40}]}
{"smiles": "CN(C(=O)c1ccc2[nH]cnc2c1)C1CCCCC1", "note": "[(V) 1, 1H-Benzoimidazole-5-carboxylic acid cyclohexyl-methyl-amide]", "values": [{"measurement": "pIC50", "result": 7.35}]}
{"smiles": "CC1Oc2c(C(=O)N(C)C3CCCCC3)cccc2C1C", "note": "(stereo not drawn) [(VI) 1, 2,3-Dimethyl-2,3-dihydro-benzofuran-7-carboxylic acid cyclohexyl-methyl-amide]", "values": [{"measurement": "pIC50", "result": 8.22}]}
{"smiles": "CN(C(=O)c1ccc2cc[nH]c2c1)C1CCCCC1", "note": "[(VII) 2, 1H-Indole-6-carboxylic acid cyclohexyl-methyl-amide]", "values": [{"measurement": "pIC50", "result": 6.93}]}
